# Laboratory results from BindingDB's records for doi:10.1016/j.bmcl.2015.05.018 (Martin-Luther-University Halle-Wittenberg, 2015).
# What was measured:
# [1] = Inhibition of human P-gp expressed in mouse T-cell lymphoma assessed as potentiation of daunorubicin-induced cellular toxicity by measuring daunorubicin IC50 at 10 uM by MTT assay (Rvb = 8.26 +/- 0.62 uM)
# [2] = Inhibition of human P-gp expressed in mouse T-cell lymphoma assessed as potentiation of daunorubicin-induced cellular toxicity by measuring daunorubicin IC50 at 5 uM by MTT assay (Rvb = 8.26 +/- 0.62 uM)
SMILES,IC50 [1] [µM],IC50 [2] [µM]
CCOC(=O)C1=CN(Cc2ccccc2)c2ccccc2C1c1cccc(OC)c1 (stereo not drawn),0.86,
CCOC(=O)C1=CN(Cc2ccccc2)c2ccccc2C1c1ccc(OC)c(OC)c1 (stereo not drawn),0.39,4.76
